Results published in article PMC6934184, “Selective DNA-PKcs inhibition extends the therapeutic index of localized radiotherapy and chemotherapy” (The Journal of Clinical Investigation, 2019).

Target: T1, TAOK2 (TAO1) (Homo sapiens, UniProt Q9UL54)
T1 construct: purchased Thermo Fisher Scientific (Life Technologies) SelectScreen
Assay: SelectScreen Z'LYTE
Type: biochemical
Summary of the method: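 SelectScreen broad panel; activity (Z'LYTE, Adapta) plus binding formats. ATP: Km app for CSF1R Z'LYTE; 10 for CAMK1 Adapta. Readout = % per kinase.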

T1 sequence (Q9UL54 whole entry): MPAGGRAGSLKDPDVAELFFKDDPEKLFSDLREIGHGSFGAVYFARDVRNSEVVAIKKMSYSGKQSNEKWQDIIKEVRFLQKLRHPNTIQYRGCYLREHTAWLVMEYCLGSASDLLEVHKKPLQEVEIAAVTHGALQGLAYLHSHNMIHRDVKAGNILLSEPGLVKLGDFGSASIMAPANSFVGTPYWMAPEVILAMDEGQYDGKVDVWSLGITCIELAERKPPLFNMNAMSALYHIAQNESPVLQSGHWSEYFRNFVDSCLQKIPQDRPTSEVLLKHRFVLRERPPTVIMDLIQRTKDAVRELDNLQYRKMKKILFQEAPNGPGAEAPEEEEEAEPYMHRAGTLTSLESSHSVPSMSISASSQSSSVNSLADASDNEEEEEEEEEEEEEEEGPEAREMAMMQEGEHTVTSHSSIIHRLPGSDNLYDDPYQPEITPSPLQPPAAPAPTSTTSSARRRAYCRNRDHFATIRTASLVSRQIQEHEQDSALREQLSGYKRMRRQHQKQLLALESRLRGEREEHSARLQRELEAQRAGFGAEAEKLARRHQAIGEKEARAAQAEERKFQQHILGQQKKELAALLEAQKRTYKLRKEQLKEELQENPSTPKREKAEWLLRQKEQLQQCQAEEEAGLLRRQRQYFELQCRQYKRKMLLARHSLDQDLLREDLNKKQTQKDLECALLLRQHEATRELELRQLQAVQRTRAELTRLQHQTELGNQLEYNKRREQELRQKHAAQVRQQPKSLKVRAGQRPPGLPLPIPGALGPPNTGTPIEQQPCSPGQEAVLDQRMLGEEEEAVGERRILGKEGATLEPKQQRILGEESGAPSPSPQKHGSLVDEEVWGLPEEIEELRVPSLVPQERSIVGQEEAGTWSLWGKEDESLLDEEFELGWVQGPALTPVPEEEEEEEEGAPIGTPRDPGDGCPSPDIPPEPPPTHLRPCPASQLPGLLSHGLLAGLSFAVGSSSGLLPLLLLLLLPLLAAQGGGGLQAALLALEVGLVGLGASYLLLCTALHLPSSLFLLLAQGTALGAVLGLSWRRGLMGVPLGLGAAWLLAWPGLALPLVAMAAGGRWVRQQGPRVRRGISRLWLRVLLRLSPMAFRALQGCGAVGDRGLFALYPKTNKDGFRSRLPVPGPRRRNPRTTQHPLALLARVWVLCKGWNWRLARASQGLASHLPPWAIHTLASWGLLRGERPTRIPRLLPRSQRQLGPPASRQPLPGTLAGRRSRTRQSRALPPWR

CN(C(=O)CN1CCOCC1)c1ccc2sc3c(-c4cccc5c(=O)cc(N6CC7CCC(C6)O7)oc45)cccc3c2c1 [NU5455]
inhibition at 1 µM: -5.1%
